Assay results taken from ChEMBL document CHEMBL1134018, “Study of aminoglycoside-nucleic acid interactions by an HPLC method” (Bioorg Med Chem Lett, 2001).

Columns and labels:
Nucleic Acid [1] = assay: Percent of interaction with calf thymus DNA (activated type XV) at a concentration of 35 uM; type: functional; conditions: Bos taurus
Nucleic Acid [2] = assay: Percent of interaction with wheat germ tRNA (type V) at a concentration of 35 uM; type: functional; conditions: Triticum aestivum

NC[C@@H]1O[C@H](O[C@H]2[C@@H](O)[C@H](O[C@@H]3[C@@H](O)[C@H](N)C[C@H](N)[C@H]3O[C@H]3O[C@H](CN)[C@@H](O)[C@H](O)[C@H]3N)O[C@@H]2CO)[C@H](N)[C@@H](O)[C@@H]1O
DNA peak exclusion (Nucleic Acid [1]): 100% | tRNA peak exclusion (Nucleic Acid [2]): 77.8%

NC[C@H]1OC(O[C@H]2[C@H](O)C(O)[C@H](N)C[C@@H]2N)C(N)[C@@H](O)[C@@H]1O (single isomer, unassigned)
DNA peak exclusion (Nucleic Acid [1]): 40% | tRNA peak exclusion (Nucleic Acid [2]): 47.3%

NC[C@@H]1O[C@@H](O[C@H]2[C@H](O)[C@@H](O[C@H]3O[C@H](CO)[C@@H](O)[C@H](N)[C@H]3O)[C@H](N)C[C@@H]2N)[C@@H](O)[C@H](O)[C@H]1O
DNA peak exclusion (Nucleic Acid [1]): 67.3% | tRNA peak exclusion (Nucleic Acid [2]): 56%

NC1C[C@@H](N)C(O)[C@@H](O)[C@@H]1O (single isomer, unassigned)
tRNA peak exclusion (Nucleic Acid [2]): 30.3%

NC(Cc1ccccc1)C(=O)NCC1O[C@@H](O[C@@H]2C(N)C[C@@H](N)[C@@H](O)C2O)[C@@H](N)C(O)[C@@H]1O (stereo partly drawn)
DNA peak exclusion (Nucleic Acid [1]): 100% | tRNA peak exclusion (Nucleic Acid [2]): 100%

CN[C@@H]1[C@H](O[C@H]2[C@H](O[C@H]3[C@H](O)[C@@H](O)[C@H](N=C(N)N)[C@@H](O)[C@@H]3N=C(N)N)O[C@@H](C)[C@]2(O)C=O)O[C@@H](CO)[C@H](O)[C@H]1O
DNA peak exclusion (Nucleic Acid [1]): 44.3% | tRNA peak exclusion (Nucleic Acid [2]): 52.5%

CCN[C@@H]1C[C@H](N)[C@@H](O[C@H]2OC(CN)=CC[C@H]2N)[C@H](O)[C@H]1O[C@H]1OC[C@](C)(O)[C@H](NC)[C@H]1O
DNA peak exclusion (Nucleic Acid [1]): 68.8% | tRNA peak exclusion (Nucleic Acid [2]): 55.1%
